According to US20090312280A1:

Assays:
[1] = tested on: HT29 human colon carcinoma xenografts; assay: in vivo chemopotentiation, HT29 xenograft (mice)
Description: (§1) Experiments 1 to 39 were conducted in mice xenografts. Experiments 40-42 were conducted in rat xenografts. Specifically, irinotecan combination studies were conducted in HT29 and Colo205. Gemcitabine combination studies were conducted in Colo205. Docetaxel combination studies were conducted in Colo205.
(§2) Gemcitabine and irinotecan are DNA directed cytotoxics known to induce checkpoint activation and subsequent S/G2M-phase arrest. […] Docetaxel is an antimitotics where recent discoveries describe a novel function for CHK1 in the mitotic checkpoint.

[2] = tested on: Colo205 human colon carcinoma xenografts; assay: in vivo chemopotentiation, Colo205 xenograft; design: species or system mice
Description: as §1, §2

[3] = tested on: HT29 human colon carcinoma xenografts; assay: in vivo chemopotentiation, HT29 xenograft (rat)
Description: as §1, §2

HT29 (Colon) = assay: cell survival / MTT combination cytotoxicity; type: cell-based, human; details: HT29; IC50 cytotoxic agent alone / IC50 combination; Compound 1 at 8x EC50 (360 nM)
Colo205 (Colon) = assay: cell survival / MTT combination cytotoxicity; type: cell-based, human; details: Colo205; IC50 cytotoxic agent alone / IC50 combination; Compound 1 at 8x EC50 (360 nM)
MDA-MB-231 (Breast) = assay: cell survival / MTT combination cytotoxicity; type: cell-based, human; details: IC50 cytotoxic agent alone / IC50 combination, Compound 1 at 8x EC50 (360 nM)
PC-3 (Prostate) = assay: cell survival / MTT combination cytotoxicity; type: cell-based, human; details: PC-3; IC50 cytotoxic agent alone / IC50 combination; Compound 1 at 8x EC50 (360 nM)
K562 (Leukemia) = assay: cell survival / MTT combination cytotoxicity; type: cell-based, human; details: IC50 cytotoxic agent alone / IC50 combination, Compound 1 at 4x EC50 (180 nM)
[4] = Exp 26, irinotecan 10 mg/kg IP Q3d×4, Compound 1 0 mg/kg
[5] = Exp 27, irinotecan 10 mg/kg IP Q3d×4 + Compound 1 4 mg/kg IP Q3d×4 24 h after
[6] = Exp 28, irinotecan 10 mg/kg IP Q3d×4 + Compound 1 20 mg/kg IP Q3d×4 24 h after
[7] = Exp 29, irinotecan 10 mg/kg IP Q3d×4 + Compound 1 40 mg/kg IP Q3d×4 24 h after
[8] = Exp 30, irinotecan 10 mg/kg IP Q3d×4, Compound 1 0 mg/kg
[9] = Exp 31, irinotecan 30 mg/kg IP Q3d×4, Compound 1 0 mg/kg
[10] = Exp 32, irinotecan 60 mg/kg IP Q3d×4, Compound 1 0 mg/kg
[11] = Exp 33, irinotecan 10 mg/kg IP Q3d×4 + Compound 1 40 mg/kg IP Q3d×4 24 h after
[12] = Exp 34, irinotecan 30 mg/kg IP Q3d×4 + Compound 1 40 mg/kg IP Q3d×4 24 h after
[13] = Exp 35, irinotecan 60 mg/kg IP Q3d×4 + Compound 1 40 mg/kg IP Q3d×4 24 h after
[14] = Exp 36, irinotecan 50 mg/kg IP Q1w×3, Compound 1 0 mg/kg
[15] = Exp 37, irinotecan 100 mg/kg IP Q1w×3, Compound 1 0 mg/kg
[16] = Exp 38, irinotecan 50 mg/kg IP Q1w×3 + Compound 1 40 mg/kg IP twice weekly, 24 and 72 h after, three weeks
[17] = Exp 39, irinotecan 100 mg/kg IP Q1w×3 + Compound 1 40 mg/kg IP twice weekly, 24 and 72 h after, three weeks
[18] = Exp 8, irinotecan 10 mg/kg IP Q3d×4, Compound 1 0 mg/kg
[19] = Exp 9, irinotecan 10 mg/kg IP Q3d×4 + Compound 1 4 mg/kg IP Q3d×4 24 h after
[20] = Exp 10, irinotecan 10 mg/kg IP Q3d×4 + Compound 1 20 mg/kg IP Q3d×4 24 h after
[21] = Exp 11, irinotecan 10 mg/kg IP Q3d×4 + Compound 1 40 mg/kg IP Q3d×4 24 h after
[22] = Exp 12, irinotecan 10 mg/kg IP Q3d×4, Compound 1 0 mg/kg
[23] = Exp 13, irinotecan 30 mg/kg IP Q3d×4, Compound 1 0 mg/kg
[24] = Exp 14, irinotecan 60 mg/kg IP Q3d×4, Compound 1 0 mg/kg
[25] = Exp 15, irinotecan 10 mg/kg IP Q3d×4 + Compound 1 40 mg/kg IP Q3d×4 24 h after
[26] = Exp 16, irinotecan 30 mg/kg IP Q3d×4 + Compound 1 40 mg/kg IP Q3d×4 24 h after
[27] = Exp 17, irinotecan 60 mg/kg IP Q3d×4 + Compound 1 40 mg/kg IP Q3d×4 24 h after
[28] = Exp 40, irinotecan 100 mg/kg IP Q3d×4, Compound 1 0 mg/kg
[29] = Exp 41, irinotecan 100 mg/kg IP Q3d×4 + Compound 1 25 mg/kg two hour IV infusion Q3d×4 24 h after
[30] = Exp 42, irinotecan 100 mg/kg IP Q3d×4 + Compound 1 100 mg/kg two hour IV infusion Q3d×4 24 h after

**Q.** What does the source list for `CCc1c2c(nc3ccc(OC(=O)N4CCC(N5CCCCC5)CC4)cc13)-c1cc3c(c(=O)n1C2)COC(=O)[C@]3(O)CC` [Irinotecan]?
**A.** % TGI [1, 4]: 26%; Growth delay [1, 4]: 1.75 days; % TGI [1, 5]: 26%; % TTP [1, 5]: 29%; Growth delay [1, 5]: 7.5 days; % TGI [1, 6]: 61%; % TTP [1, 6]: 39%; % poten TGI [1, 6]: 47%; Growth delay [1, 6]: 9.5 days; % TGI [1, 7]: 57%; % TTP [1, 7]: 44%; % poten TGI [1, 7]: 42%; Growth delay [1, 7]: 10.5 days; % TGI [1, 8]: 8%; Growth delay [1, 8]: 2.75 days; % TGI [1, 9]: 13%; Growth delay [1, 9]: 4 days; % TGI [1, 10]: 49%; Growth delay [1, 10]: 12.5 days; % TGI [1, 11]: 22%; % TTP [1, 11]: 0%; % poten TGI [1, 11]: 15%; Growth delay [1, 11]: 1.0 days; % TGI [1, 12]: 66%; % TTP [1, 12]: 61%; % poten TGI [1, 12]: 60%; Growth delay [1, 12]: 17.5 days; % TGI [1, 13]: 77%; % TTP [1, 13]: 28%; % poten TGI [1, 13]: 55%; Growth delay [1, 13]: 21 days; % TGI [1, 14]: 65%; Growth delay [1, 14]: 7.5 days; % TGI [1, 15]: 70%; Growth delay [1, 15]: 11.5 days; % TGI [1, 16]: 77%; % TTP [1, 16]: 24%; % poten TGI [1, 16]: 36%; Growth delay [1, 16]: 14 days; % TGI [1, 17]: 89%; % TTP [1, 17]: 49%; % poten TGI [1, 17]: 62%; Growth delay [1, 17]: 21 days; % TGI [2, 18]: 35%; Growth delay [2, 18]: 18 days; % TGI [2, 19]: 50%; % poten TGI [2, 19]: 22%; Growth delay [2, 19]: 18 days; % TGI [2, 20]: 69%; % TTP [2, 20]: 33%; % poten TGI [2, 20]: 52%; Growth delay [2, 20]: 24 days; % TGI [2, 21]: 59%; % TTP [2, 21]: 12%; % poten TGI [2, 21]: 37%; Growth delay [2, 21]: 20.5 days; % TGI [2, 22]: 35%; Growth delay [2, 22]: 18 days; % TGI [2, 23]: 65%; Growth delay [2, 23]: 22 days; % TGI [2, 24]: 83%; Growth delay [2, 24]: 48 days; % TGI [2, 25]: 59%; % TTP [2, 25]: 12%; % poten TGI [2, 25]: 37%; Growth delay [2, 25]: 20.5 days; % TGI [2, 26]: 73%; % TTP [2, 26]: 54%; % poten TGI [2, 26]: 24%; Growth delay [2, 26]: 34 days; % TGI [2, 27]: 91%; % TTP [2, 27]: 8%; % poten TGI [2, 27]: 47%; Growth delay [2, 27]: 52 days; % TGI [3, 28]: 45%; Growth delay [3, 28]: 4.0 days; % TGI [3, 29]: 58%; % poten TGI [3, 29]: 23%; Growth delay [3, 29]: 4.0 days; % TGI [3, 30]: 77%; % TTP [3, 30]: 24%; % poten TGI [3, 30]: 58%; Growth delay [3, 30]: 8.0 days

**Q.** `CO[C@@]12[C@H](COC(N)=O)C3=C(C(=O)C(C)=C(N)C3=O)N1C[C@@H]1N[C@@H]12` [Mytomicin C] was tested. Which “PF50 (Potentiation Factor50)” value (HT29 (Colon)) did it give?
**A.** The value was 3.7.

**Q.** What about the “PF50 (Potentiation Factor50)” value (Colo205 (Colon)) of the same compound?
**A.** Its value is 5.3.

**Q.** And the “PF50 (Potentiation Factor50)” value (MDA-MB-231 (Breast))?
**A.** Its value is 1.2.

**Q.** What does the source list for `N.N.O=C([O-])C1(C(=O)[O-])CCC1.[Pt+2]` [Carboplatin]?
**A.** PF50 (Potentiation Factor50) (HT29 (Colon)): 3; PF50 (Potentiation Factor50) (Colo205 (Colon)): 5.4; PF50 (Potentiation Factor50) (PC-3 (Prostate)): 3.1; PF50 (Potentiation Factor50) (K562 (Leukemia)): 1.9; PF50 (Potentiation Factor50) (MDA-MB-231 (Breast)): 2.55
